From PMC12535076, “Neurotherapeutic effects of Vutiglabridin as a Paraoxonase-2 modulator in preclinical models of Parkinson’s disease” (Molecular Neurodegeneration, 2025)
Read-outs that look alike come from different tables or passages of the source.

Legend:
[1] = Quantification of drug concentration in plasma and brain of mice (LC-MS/MS); assay type: in vivo, C57BL/6J mice; settings: mouse
Description: Male C57BL/6J mice (8 weeks old, n = 24, non-fasted; Charles River Japan (CRJ), OrientBio, Seongnam, Korea) were dosed with 50 mg/kg of Vuti once and sacrificed at 0, 1, 2, 4, 6, 8, 10, 24 h time point (n = 3 per time point). Their whole blood was collected via the vena cava in a heparin-coated syringe and their whole brain was collected after perfusion with 0.9% saline. Vuti was quantified in both plasma and brain samples using LC-MS/MS analysis. This study was performed in accordance with the Association for Assessment and Accreditation of Laboratory Animal Care International (AAALAC; Approval No. LCDI-2021-0027).
LC-MS/MS analysis to quantify Vuti used previously set conditions. Briefly, HPLC-ESI-MS/MS analyses were performed using a 1200 series HPLC system (Agilent Technologies, Wilmington, DE) coupled to 6490 Accurate-Mass Triple Quadrupole Mass Spectrometer (Agilent Technologies, Wilmington, DE). Mass detection was performed in the positive ion mode, and the column temperature was maintained at 40 °C using a thermostatically controlled column oven. The column used for the separation was Hypersil GOLD C18 column (2.1 × 100 mm ID; 1.9 μm, Thermo Science). The mobile phases consisted of 0.1% acetic acid in distilled water (solvent A) and 0.1% acetic acid in ACN: MeOH = 3:1 (v/v) (solvent B). The LC gradient was as follows: 0–3 min, B 20%; 3–5 min, B 20 − 80%; 5–8 min, B 80%; 8–10 min, B 80 − 20%; and 10–15 min, B 20%. The flow rate was 250 µL/ min, and the total run time was 15 min. For multiple reaction monitoring (MRM) analyses, the target transition used was 355.1/151.0 m/z for Vuti. The collision energy was 17 V and nitrogen was used as the desolvation gas at a flow rate of 11 L/min and at 300 °C. Skyline software (MacCoss Laboratory, University of Washington, Seattle, WA) was used to process the LC-MS/MS data.

[2] = tested on: SH-SY5Y human neuroblastoma cells; experiment: Cell-based mitochondrial activity assays in MPP+-treated SH-SY5Y cells
Description: Human SH-SY5Y neuroblastoma cells (ATCC® (CRL-2266™; Manassas, VA, USA) were first cultured in Dulbecco’s Modified Eagle Medium (DMEM)/F12 supplemented with 10% fetal bovine serum (FBS), 100 U/mL penicillin, and 100 µg/mL streptomycin (complete media, CM) at 37 °C with 5% CO2. Cells (5 × 10^4 cells/well) then were cultured in 96-well plates for 24 h followed by incubation in serum-deficient media (SDM, culture media containing 0.5% FBS) for 16 h. […] The treated cells were harvested according to the purpose and analyzed.
A systemic cell-based mitochondrial function analysis system was established using SH-SY5Y cells in 96-well plates based on fluorescence detection methods as described previously. The assay system covers quantitative assays for methyl thiazyl tetrazolium-mitochondrial dehydrogenase activity (MTT), TMRE-based mitochondrial membrane potential (TMRE), ATP contents, and ROS of cells. Cells in black 96-well culture plate were incubated with 200 nM TMRE and 0.5 µM Hoechst 33,342 for 30 min at 37 °C in phenol red-free SDM, or with 1 µM CM-H2DCFDA or 5 µM MitoSOX and 0.5 µM Hoechst 33,342 for 1 h at 37 °C. Fluorescence intensities at 550 nm/580 nm for TMRE, at 510 nm/580 nm MitoSOX, or at 494 nm/522 nm for DCF-DA were normalized by Hoechst intensity at 355 nm/480 nm (Spectramax Gemini EM, Molecular Devices, Sunnyvale, CA, USA).
Endogenous OCR was measured in adherent SH-SY5Y cells using a Seahorse XF-24 Analyzer (Seahorse Bioscience, Billerica, MA, USA) following the manufacturer’s protocol with minor modifications. Briefly, OCR assays were performed using SH-SY5Y cells (5.0 × 10^3 cells/well) equilibrated in DMEM without sodium bicarbonate in XF-24 microplates. After measuring basal OCR for 3 min, oligomycin (1 µg/mL), carbonyl cyanide-p-trifluoromethoxyphenylhydrazone (FCCP) (0.3 µM), and rotenone (0.1 µM) were consecutively added into each well to reach their final working concentrations. The OCR was calculated from 3-min measurement cycles and normalized to cell number.

[3] = biological target: T1, PON2 (Mus musculus, UniProt Q62086); experiment: PON2 activity assay (esterase and lactonase) in A53T-infected astrocytes; assay type: cell-based; settings: primary cultured astrocytes infected with A53T virus, Vuti 24 h
T1 construct: we infected a primary cultured cortical astrocytes with AAV-CMV-αsyn-A53T virus; endogenous in cells; host or cells: primary cultured cortical astrocytes infected with AAV-CMV-αsyn-A53T
Description: To assess PON2 activity following Vuti treatment, we infected a primary cultured cortical astrocytes with AAV-CMV-αsyn-A53T virus. Five days post-infection, we treated the cells with Vuti for 24 h and conducted esterase and lactonase assays. For the esterase activity evaluation, reactions were initiated by adding 1 mM p-nitrophenyl acetate (pNPA) to the PON2 activity assay buffer. Enzymatic hydrolysis was monitored by measuring the absorbance at 412 nm. For lactonase activity, the reactions were initiated with 1 mM thio-butyrolactone (TBBL) and 1 mM 5,5’-dithiobis(2-nitrobenzoic acid) (DTNB) in the PON2 activity assay buffer, with absorbance measured at 420 nm to monitor enzymatic hydrolysis.

Structure (SMILES): CCOc1ccc(C2COc3c(ccc4c3CCC(C)(C)O4)C2)c(O)c1 (stereo not drawn) [Vuti, Vutiglabridin]
- Kp at 6 h ([1]; male, C57BL/6J, brain / plasma, oral, single 50 mg/kg, at Tmax of 6 h, read-out: brain concentration relative to plasma): 2.7
- Kp ([1]; male, C57BL/6J, brain / plasma, single oral 50 mg/kg, read-out: brain relative to plasma by AUC24h): 2.6
- concentration at 6 h ([1]; male, C57BL/6J, brain, single oral 50 mg/kg, at Tmax of 6 h, read-out: concentration in brain): 4030 ng/g
- Tmax ([1]; male, C57BL/6J, plasma, single oral 50 mg/kg): 6 h
- concentration at 6 h ([1]; male, C57BL/6J, plasma, single oral 50 mg/kg, at Tmax of 6 h, read-out: concentration in plasma): 1490 ng/mL
- AUC(0-t) ([1]; male, C57BL/6J, plasma, single oral 50 mg/kg, read-out: AUC24h in plasma): 16100 ng·h/mL
- AUC24h in brain ([1]; single oral 50 mg/kg): 42.5 µg·h/g
- MPP+-induced reduction in OCR (basal respiration, ATP turnover rate, maximum respiratory capacity) ([2]; 1 mM MPP+ 20 h, then Vuti 1~100 nM 24 h, Seahorse XF-24): dose-dependently and significantly rescued
- MPP+-induced mitochondrial damage (NADH dehydrogenase complex 1 activity, ATP content, DCF-DA ROS, MitoSOX superoxide) ([2]; 1 mM MPP+ 24 h, then Vuti 0~1 µM 24 h): significantly reversed
- ATP production rates through glycolysis (GlycoATP) and mitochondria (mitoATP) ([2]; 1 mM MPP+, post-treatment with Vuti): normalized
- concentration at which significant restoration of MPP+-induced damage was observed ([2]; SH-SY5Y, 1 mM MPP+): 1 nM
- PON2 esterase and lactonase activities [3]: increased
